{"source": "patent EP0523013B1", "about": "“Use of benzimidazoline-2-oxo-1-carboxylic acid derivatives in the treatment of organic mental diseases” (BOEHRINGER INGELHEIM ITALIA S.p.A., priority 1991, dated 1993)", "tested_on": "scopolamine-induced impairment of passive avoidance response", "experiment": "passive avoidance test, scopolamine-induced impairment", "assay_type": "in vivo, Male Sprague Dawley rats", "description": "Male Sprague Dawley rats weighing 175-200 g were used. The animals were kept in a regulated environment (20 ± 1°C, 50-55% humidity and 12 hours light-dark cycle, light on at 7.00 a.m.) and maintained with standard pellet diet. The apparatus used for the passive avoidance test was composed of a dark compartment (30x30x30 cm) with a grid floor and a compartment (30x30x30 cm) illuminated from above by a 20 W daylight lamp, the 2 compartments being separated by a guillotine-type door (10x8 cm). Scrambled electric shocks were delivered to the grid floor by an isolated stimulator.\nRats were divided in groups of 10 animals. • a) Training: each rat was placed gently in the lighted compartment and 10 sec later the door was opened. As soon as the rat had moved into the dark compartment and the door had been shut, a 1.6 mA foot-shock was applied for 1 sec. The rat was immediately removed from the apparatus and returned to the home cage. • b) Retention: the retention test was carried out 24 hours later by an observer unaware of the given treatment. Each rat was placed into the lighted compartment again and the step-through latency was recorded. The test is stopped when the rat enters the dark compartment or when it fails to do so in […] 180 sec.", "key": {"[1]": {"conditions": "step-through latency in retention test 24 hours after training, test compound 0.03 mg/kg i.p. 15 min before scopolamine 0.75 mg/kg i.p., which was given 30 min before training, mean ± S.E.M, 10 animals, cut-off 180 sec"}}, "note": "Where a name gives a salt, the structure may show the parent alone. Marks after values point to notes of the source that are not given here.", "data": [{"smiles": "CC(C)n1c(=O)n(C(=O)N[C@H]2C[C@H]3CC[C@@H](C2)N3C)c2ccccc21", "note": "[Compound 6, N-(endo-8-methyl-8-azabicyclo[3.2.1]oct.-3-yl)-2,3-dihydro-3-(1-methyl)ethyl-2-oxo-1H-benzimidazole-1-carboxamide, hydrochloric acid salt]", "values": [{"measurement": "LATENCY (SEC)", "setting": "[1]", "result": "140 + 16 ** SEC"}]}, {"smiles": "CN1[C@@H]2C[C@@H](OC(=O)[C@H](CO)c3ccccc3)C[C@H]1[C@@H]1O[C@@H]12", "note": "[Scopolamine, scopolamine, reference compound]", "values": [{"measurement": "LATENCY", "setting": "rat, in vivo, ip, 0.75 mg/kg", "result": "66 ± 18.7", "unit": "s"}]}, {"smiles": "CCn1c(=O)n(C(=O)N[C@H]2C[C@H]3CC[C@@H](C2)N3C)c2ccccc21", "note": "[Compound 5, N-(endo-8-methyl-8-azabicyclo[3.2.1]oct.-3-yl)-2,3-dihydro-3-ethyl-2-oxo-1H-benzimidazole-1-carboxamide]", "values": [{"measurement": "LATENCY", "setting": "[1]", "result": "113 ± 17.0", "unit": "s"}]}, {"smiles": "CN1[C@@H]2CC[C@H]1C[C@@H](NC(=O)n1c(=O)[nH]c3ccccc31)C2", "note": "[Compound 1, N-(endo-8-methyl-8-azabicyclo[3.2.1]oct-3-yl)-2,3-dihydro-2-oxo-1H-benzimidazole-1-carboxamide]", "values": [{"measurement": "LATENCY", "setting": "step-through latency in retention test 24 hours after training, test compound 0.01 mg/kg i.p. 15 min before scopolamine 0.75 mg/kg i.p., which was given 30 min before training, mean ± S.E.M, 10 animals, cut-off 180 sec", "result": "136 ± 16.0", "unit": "s"}, {"measurement": "LATENCY", "setting": "[1]", "result": "109 ± 17.0", "unit": "s"}]}]}
